The experiment deals with PilT (Neisseria gonorrhoeae, UniProt Q53432). To be noted: MgCl2 5 mM, Tris 150 mM pH 8.5, NaCl 150 mM, 37 °C; variable ATP, 10 min.
Sequence of PilT (Q53432 entry or part of it): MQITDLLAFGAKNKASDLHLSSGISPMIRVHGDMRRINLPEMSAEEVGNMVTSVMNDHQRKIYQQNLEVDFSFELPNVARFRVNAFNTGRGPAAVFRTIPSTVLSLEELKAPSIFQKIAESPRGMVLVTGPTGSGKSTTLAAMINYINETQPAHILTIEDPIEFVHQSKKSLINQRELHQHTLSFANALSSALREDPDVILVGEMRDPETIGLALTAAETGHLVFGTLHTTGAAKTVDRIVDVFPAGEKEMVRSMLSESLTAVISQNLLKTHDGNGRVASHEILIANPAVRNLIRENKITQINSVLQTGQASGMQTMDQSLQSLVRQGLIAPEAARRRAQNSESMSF

As to `Nc1ncnc2c1ncn2[C@@H]1O[C@H](COP(=O)(O)OP(=O)(O)OP(=O)(O)O)[C@@H](O)[C@H]1O` [ATP], the Km was determined as 0.38 nmol.

(Values after article PMC5142622, “Attenuation of the Type IV Pilus Retraction Motor Influences Neisseria gonorrhoeae Social and Infection Behavior” (mBio, 2016).)
